Here are results for 23 compounds from patent publication US20110256238A1, “WOOD PRESERVATIVE AND WOOD PROCESSING METHOD” (SDS BIOTECH K.K., priority 2008, published 2011).

The subject of the first series is Coniphora puteana. The experiment in a line: Agar medium colony growth inhibition test on Coniphora puteana. The series is classed as cell-based. The following applies: 0.2 ppm in potato dextrose agar, 25° C., colony diameter on the seventh day vs control. How it is done: A predetermined amount of the solutions diluted with dimethylsulfoxide were fully mixed in the sterilized potato dextrose agar medium, and 15 ml of the resultant medium was poured into a petri dish 90 mm in diameter and allowed to stand at room temperature. As a control, the potato dextrose agar medium added with dimethylsulfoxide only was also prepared. […] The fungi was cultivated in the petri dish at 25° C., and the diameter of the colony spread from the source of inoculum was measured on the seventh day. The growth inhibition ratio between the diameter of the test colony and that of the control was determined by the following formula as an indication of the degree of inhibition. Compound A apparently had greater effects on Coniphora puteana compared to the compounds which had been disclosed in the past. Growth inhibition ratio (%)={(diameter of the control colony−diameter of the test colony)/diameter of the control colony}×100 [Formula 1]
For `CC(C)Oc1cccc(NC(=O)c2ccccc2C(F)(F)F)c1` [compound 1, 3′-isopropoxy-2-trifloromethyl benzoic acid anilide], the “Degree of inhibition on Coniphora puteana at 0.2 ppm” value (shortened to “Degree of inhibition”) is listed as “▴ (inhibition ratio of 25 to 50%)”.
Still for that read-out and setting: in the case of `Cc1ccccc1C(=O)Nc1cccc(OC(C)C)c1` [compound 2, 3′-isopropoxy-2-methyl benzoic acid anilide] it was “▴ (inhibition ratio of 25 to 50%)”.
As to `Cc1ccccc1C(=O)Nc1cccc(C(C)C)c1` [compound 3, 3′-isopropyl-2-methyl benzoic acid anilide], the “Degree of inhibition” value was “▴ (inhibition ratio of 25 to 50%)”.
For `CC(C)c1cccc(NC(=O)c2ccccc2I)c1` [compound 4, 3′-isopropyl-2-iodobenzoic acid anilide], the “Degree of inhibition” value is given as “▴ (inhibition ratio of 25 to 50%)”.
Take `CC(C)Oc1cccc(NC(=O)c2ccccc2I)c1` [compound 5, 3′-isopropoxy-2-iodobenzoic acid anilide]: the “Degree of inhibition” value is on record as “▴ (inhibition ratio of 25 to 50%)”.
On the same count and under the same terms, in the case of `CC(C)c1cccc(NC(=O)c2ccccc2[N+](=O)[O-])c1` [compound 6, 3′-isopropyl-2-nitrobenzoic acid anilide] it was “x (inhibition ratio of 25% or less)”.
On to `CC(C)c1cccc(NC(=O)c2ccccc2Br)c1` [compound 7, 3′-isopropyl-2-bromobenzoic acid anilide], for which the “Degree of inhibition” value is “▴ (inhibition ratio of 25 to 50%)”.
The same measure, in the same setting: in the case of `O=C(Nc1ccccc1)c1ccccc1C(F)(F)F` [compound 8, 2-trifloromethyl benzoic acid anilide] it was “x (inhibition ratio of 25% or less)”; in that of `CC(C)c1ccccc1NC(=O)c1ccccc1C(F)(F)F` [compound 9, 2′-isopropyl-2-trifloromethyl benzoic acid anilide], “x (inhibition ratio of 25% or less)”.
The same measure, in the same setting: in the case of `CC(C)c1ccc(NC(=O)c2ccccc2C(F)(F)F)cc1` [compound 10, 4′-isopropyl-2-trifloromethyl benzoic acid anilide] it was “x (inhibition ratio of 25% or less)”; in that of `Cc1cccc(NC(=O)c2ccccc2C(F)(F)F)c1` [compound 11, 3′-methyl-2-trifloromethyl benzoic acid anilide], “▴ (inhibition ratio of 25 to 50%)”.
As for `CCc1cccc(NC(=O)c2ccccc2C(F)(F)F)c1` [compound 12, 3′-ethyl-2-trifloromethyl benzoic acid anilide], the “Degree of inhibition” value is “▴ (inhibition ratio of 25 to 50%)”.
Still for that read-out and setting: the value for `O=C(Nc1cccc(C(F)(F)F)c1)c1ccccc1C(F)(F)F` [compound 13, 2,3′-trifluoromethyl benzoic acid anilide] was “x (inhibition ratio of 25% or less)”; that for `O=C(Nc1cccc(OC(F)(F)F)c1)c1ccccc1C(F)(F)F` [compound 14, 3′-trifluoromethoxy-2-trifloromethyl benzoic acid anilide] was “x (inhibition ratio of 25% or less)”.
Same read-out and setting: in the case of `O=C(Nc1cccc(F)c1)c1ccccc1C(F)(F)F` [compound 15, 3′-fluoro-2-trifloromethyl benzoic acid anilide] it was “x (inhibition ratio of 25% or less)”.
The same measure, in the same setting: the value for `O=C(Nc1cccc(Cl)c1)c1ccccc1C(F)(F)F` [compound 16, 3′-chloro-2-trifloromethyl benzoic acid anilide] was “x (inhibition ratio of 25% or less)”.
With `O=C(Nc1cccc(Br)c1)c1ccccc1C(F)(F)F` [compound 17, 3′-bromo-2-trifloromethyl benzoic acid anilide], the “Degree of inhibition” value is recorded as “x (inhibition ratio of 25% or less)”.
On the same count and under the same terms, the value for `O=C(Nc1cccc(I)c1)c1ccccc1C(F)(F)F` [compound 18, 3′-iodo-2-trifloromethyl benzoic acid anilide] was “x (inhibition ratio of 25% or less)”; that for `Cc1ccc(C(C)C)cc1NC(=O)c1ccccc1C(F)(F)F` [compound 19, 5′-isopropyl-2′-methyl-2-trifluoromethyl benzoic acid anilide] was “x (inhibition ratio of 25% or less)”.

Staying with this series, now noted: 0.2 ppm in potato dextrose agar, 25° C., colony diameter on the seventh day vs control; read-out: Degree of inhibition on Coniphora puteana at 0.2 ppm.
By inhibition is commonly meant the change of the read-out against control, counted positive when it falls. On to `CC(C)c1cccc(NC(=O)c2ccccc2C(F)(F)F)c1` [Compound A, 3′-isopropyl-2-trifluoromethyl benzoic acid anilide], for which the inhibition at 0.2 ppm was at least 75%.

The next series deals with Trametes versicolor. The series is described as follows: Agar medium colony growth inhibition test on Trametes versicolor, with Colby synergy calculation. As to conditions: single compound, 0.2 ppm, potato dextrose agar, 25° C., seventh day. It is filed as cell-based. How it is done:
Each of 1% w/v dimethylsulfoxide solution of compound A, cyproconazole (manufactured by Wako Pure Chemical Industries, Ltd.), epoxyconazole (manufactured by Wako Pure Chemical Industries, Ltd.) and tetraconazole (manufactured by Wako Pure Chemical Industries, Ltd.) was prepared. The solutions diluted with dimethylsulfoxide were fully mixed in the sterilized potate dextrose agar medium, and 15 ml of the resultant medium was poured into a petri dish 90 mm in diameter and allowed to stand at room temperature. As a control, the potate dextrose agar medium added with dimethylsulfoxide only was also prepared. After the medium was solidified, the mycelia was scooped with the medium from the colony of Trametes versicolor as being a typical wood-decaying fungi, which had been cultivated in advance, using a cork baller 5 mm in diameter; and inoculated in the center of the test medium. The fungi was cultivated in the petri dish at 25° C., and the diameter of the colony spread from the source of inoculum was measured on the seventh day. The growth inhibition ratio by comparing the diameter of the test colony to that of the control was determined by the above-mentioned formula as an indication of the actual measured growth inhibition ratio. The theoretical efficacy ratio of the mixture of the active ingredients (i.e. theoretical growth inhibition ratio) was determined using the following Colby's formula (R. S. Colby, Weeds 15, 20-22 (1967)) to thereby be compared with the actual-measured efficacy ratio ([…]).
Colby's formula: E=x+y−x·y/100 [Formula 2]
E: theoretical efficacy ratio (theoretical growth inhibition ratio) represented by the ratio (%) to the control when the mixture of active compound B (concentration b) and C (concentration c) was used. x: efficacy ratio (growth inhibition ratio) represented by the ratio (%) to the control when active compound B was used at a concentration of b. y: efficacy ratio (growth inhibition ratio) represented by the ratio (%) to the control when active compound C was used at a concentration of c.
For the compound `Fc1ccc([C@]2(Cn3cncn3)O[C@H]2c2ccccc2Cl)cc1` (racemic) [Epoxiconazole], the “Actual measured growth inhibition ratio (%)” value is recorded as 24%.
Consider `CC(C)c1cccc(NC(=O)c2ccccc2C(F)(F)F)c1` [Compound A, 3′-isopropyl-2-trifluoromethyl benzoic acid anilide], for which the “Actual measured growth inhibition ratio (%)” value is on record as 35%.
On to `FC(F)C(F)(F)OCC(Cn1cncn1)c1ccc(Cl)cc1Cl` (stereo not shown) [Tetraconazole], for which the “Actual measured growth inhibition ratio (%)” value is 25%.
Turning to `CC(C1CC1)C(O)(Cn1cncn1)c1ccc(Cl)cc1` (stereo not shown) [cyproconazole], the “Actual measured growth inhibition ratio (%)” value was 33%.

Tested on in the next series: not given
Assay: not given
Details: not given
Broadly, the melting point is the temperature, or range, at which the solid turns liquid. Turning to `CC(C)c1cccc(NC(=O)c2ccccc2C(F)(F)F)c1` [Compound A, 3′-isopropyl-2-trifluoromethyl benzoic acid anilide], the melting point is 98 to 101 °C.
